How the values were obtained:
OVCAR-3 [1] = test: Induction of apoptosis in human OVCAR-3 cells assessed as late apoptotic cells at 2 uM incubated for 24 hrs by Annexin V-FITC/PI staining based flow cytometry analysis (reference value: 2.67%); assay type: functional
[2] = Antiproliferative activity against CCNE1-amplified human OVCAR-3 cells assessed as cell growth inhibition incubated for 3 days by CCK8 assay; assay type: functional, cell-based; conditions: OVCAR-3, 72 h
OVCAR-3 [3] = test: Induction of apoptosis in human OVCAR-3 cells assessed as early apoptotic cells at 2 uM incubated for 24 hrs by Annexin V-FITC/PI staining based flow cytometry analysis (reference value: 1.25%); assay type: functional
OVCAR-3 [4] = test: Induction of cell cycle arrest in human OVCAR-3 cells assessed as accumulation of cells at G2 phase at 2 uM incubated for 24 hrs by flow cytometry analysis (reference value: 21.77%); assay type: functional
OVCAR-3 [5] = test: Induction of cell cycle arrest in human OVCAR-3 cells assessed as accumulation of cells at G1 phase at 2 uM incubated for 24 hrs by flow cytometry analysis (reference value: 67.73%); assay type: functional
OVCAR-3 [6] = test: Induction of apoptosis in human OVCAR-3 cells assessed as necrotic cells at 2 uM incubated for 24 hrs by Annexin V-FITC/PI staining based flow cytometry analysis (reference value: 0.87%); assay type: functional
OVCAR-3 [7] = test: Induction of apoptosis in human OVCAR-3 cells assessed as viable cells at 2 uM incubated for 24 hrs by Annexin V-FITC/PI staining based flow cytometry analysis (reference value: 95.2%); assay type: functional; conditions: read-out: Activity
[8] = target: Cyclin-dependent kinase 2/cyclin E1 (Homo sapiens, UniProt P24941); test: Inhibition of CDK2/Cyclin E1 (unknown origin) pre-incubated for 10 mins followed by ATP/substrate addition and measured after 60 mins by ADP-Glo assay; assay type: protein-complex assay
MCF7 = test: Antiproliferative activity against wild type human MCF7 cells assessed as cell growth inhibition; assay type: functional, cell-based
[9] = Antiproliferative activity against Palbociclib-resistance human MCF7 cells assessed as cell growth inhibition; assay type: functional, cell-based, Palbociclib-resistant MCF7 cell

Row | IC50 [8] | Structure (SMILES) | further results
1 | – | FC(F)Oc1cc(Nc2cnc3cnn(CC4CCOCC4)c3n2)n[nH]1 [CERTOCICLIB] | Activity (OVCAR-3 [1]): 12.5%; IC50 [2]: 2310 nM; Activity (OVCAR-3 [3]): 4.47%; Activity (OVCAR-3 [4]): 2.64%; Activity (OVCAR-3 [5]): 95.66%; Activity (OVCAR-3 [6]): 3.77%; viability at 2 µM (OVCAR-3 [7]): 79.3%
2 | 7 nM | CC(C)n1cc(-c2nc(NC3CCN(S(C)(=O)=O)CC3)ncc2F)ccc1=O | –
3 | 73 nM | CC(C)Oc1ncc(-c2nc(NC3CCN(S(C)(=O)=O)CC3)ncc2F)cc1F | –
4 | 216 nM | CC(C)Oc1ncc(-c2nc(NC3CCN(S(=O)(=O)C(C)C)CC3)ncc2F)cc1F | –
5 | 166 nM | Cc1cc(-c2nc(NC3CCN(S(C)(=O)=O)CC3)ncc2F)cnc1OC(C)C | –
6 | 341 nM | COc1cnc(NC2CCN(S(C)(=O)=O)CC2)nc1-c1cnc(OC(C)C)c(F)c1 | –
7 | 3 nM | CCC(C)n1cc(-c2nc(NC3CCN(S(C)(=O)=O)CC3)ncc2F)cc(F)c1=O (stereo not drawn) | –
8 | 23 nM | CCn1cc(-c2nc(NC3CCN(S(C)(=O)=O)CC3)ncc2F)cc(F)c1=O | –
9 | 124 nM | COCCS(=O)(=O)N1CCC(Nc2ncc(F)c(-c3cnc(OC(C)C)c(F)c3)n2)CC1 | –
10 | – | CC(=O)c1c(C)c2cnc(Nc3ccc(N4CCNCC4)cn3)nc2n(C2CCCC2)c1=O [PALBOCICLIB] | IC50 (MCF7): 80 nM; IC50 [9]: 13.8 µM
11 | 8 nM | CC(C)n1cc(-c2nc(NC3CCN(S(=O)(=O)C(C)C)CC3)ncc2F)cc(F)c1=O | –
12 | > 1000 nM | CC(C)n1cc(-c2nc(NC3CCNCC3)ncc2F)ccc1=O | –
13 | 810 nM | CC(C)Oc1ncc(-c2ccnc(NC3CCN(S(C)(=O)=O)CC3)n2)cc1F | –
14 | 10 nM | COCCS(=O)(=O)N1CCC(Nc2ncc(F)c(-c3ccc(=O)n(C(C)C)c3)n2)CC1 | –
15 | 16 nM | CC(C)n1cc(-c2nc(NC3CCN(S(=O)(=O)C(C)C)CC3)ncc2F)ccc1=O | –
16 | 93 nM | CC(C)Oc1ccc(-c2nc(NC3CCN(S(C)(=O)=O)CC3)ncc2F)cn1 | –
17 | 7 nM | CCC(C)n1cc(-c2nc(NC3CCN(S(=O)(=O)CC)CC3)ncc2F)cc(F)c1=O (stereo not drawn) | –
18 | 4 nM | CC(C)n1cc(-c2nc(NC3CCN(S(C)(=O)=O)CC3)ncc2F)cc(F)c1=O | –

Row | IC50 [8] | Structure (SMILES) | further results
19 | 222 nM | Cc1cc(-c2nc(NC3CCN(S(C)(=O)=O)CC3)ncc2F)cn(C(C)C)c1=O | –
20 | 12 nM | CC(C)Cn1cc(-c2nc(NC3CCN(S(C)(=O)=O)CC3)ncc2F)cc(F)c1=O | –
21 | 13 nM | CCCCn1cc(-c2nc(NC3CCN(S(C)(=O)=O)CC3)ncc2F)cc(F)c1=O | –
22 | 130 nM | CCCS(=O)(=O)N1CCC(Nc2ncc(F)c(-c3cnc(OC(C)C)c(F)c3)n2)CC1 | –
23 | 42 nM | CC(C)n1cc(-c2nc(NC3CCN(S(=O)(=O)C(F)(F)F)CC3)ncc2F)ccc1=O | –
24 | 139 nM | CC(C)n1cc(-c2nc(NC3CCN(C(=O)OC(C)(C)C)CC3)ncc2F)ccc1=O | –
25 | 113 nM | CCS(=O)(=O)N1CCC(Nc2ncc(F)c(-c3cnc(OC(C)C)c(F)c3)n2)CC1 | –
26 | 5 nM | CC(C)n1cc(-c2nc(NC3CCN(S(=O)(=O)C4CC4)CC3)ncc2F)cc(F)c1=O | –
27 | 7 nM | CCCS(=O)(=O)N1CCC(Nc2ncc(F)c(-c3ccc(=O)n(C(C)C)c3)n2)CC1 | –
28 | 6 nM | CCS(=O)(=O)N1CCC(Nc2ncc(F)c(-c3cc(F)c(=O)n(C(C)C)c3)n2)CC1 | –
29 | 5 nM | CCCS(=O)(=O)N1CCC(Nc2ncc(F)c(-c3cc(F)c(=O)n(C(C)C)c3)n2)CC1 | –
30 | 70 nM | Cn1cc(-c2nc(NC3CCN(S(C)(=O)=O)CC3)ncc2F)cc(F)c1=O | –
31 | 656 nM | CC(C)Oc1ncc(-c2nc(NC3CCN(S(C)(=O)=O)CC3)ncc2F)cc1C(=O)O | –
32 | 5 nM | CCC(C)n1cc(-c2nc(NC3CCN(S(=O)(=O)CCOC)CC3)ncc2F)cc(F)c1=O (stereo not drawn) | –
33 | 15 nM | CC(C)=CCn1cc(-c2nc(NC3CCN(S(C)(=O)=O)CC3)ncc2F)cc(F)c1=O | –
34 | 63 nM | CC(=O)N1CCC(Nc2ncc(F)c(-c3ccc(=O)n(C(C)C)c3)n2)CC1 | –
35 | 7 nM | COCCS(=O)(=O)N1CCC(Nc2ncc(F)c(-c3cc(F)c(=O)n(C(C)C)c3)n2)CC1 | –
36 | 297 nM | Cc1nc(OC(C)C)ccc1-c1nc(NC2CCN(S(C)(=O)=O)CC2)ncc1F | –

— ChEMBL document CHEMBL6177950, “Discovery of potent and selective CDK2 inhibitors with high safety and favorable bioavailability for the treatment of cancer” (Eur J Med Chem, 2025)
